# Measured values: patent publication US11266715B2, “C3A receptor agonists for use against ischemic brain injury, stroke, traumatic brain injury, spinal cord injury and neurodegenerative disorders” (priority 2016, dated 2022)
# System: VGLUT1+ puncta
# Assay: VGLUT1 immunostaining of cortex 21 days after stroke
# Format: in vivo, mouse
# Conditions: ipsilesional cortex, in particular deep cortical layers
# Method: For immunofluorescent evaluation, sections were deparaffinized, heated three times for 5 min in a microwave oven in 0.01 M citric buffer (pH 6.0), and blocked in PBS containing 0.05% Tween-20 (Sigma) and 1% in Bovine serum albumin (BSA, Sigma) for GAP-43 and synapsin I staining, 3% normal goat serum for VGLUT1 staining or 4% normal donkey serum for GAP-43 double stainings. Goat anti-synapsin la/b antibody (1:150; Santa Cruz, sc-7379) was followed by biotin-conjugated donkey anti-goat immunoglobulin (Ig) secondary antibody (1:200; Jackson Research Lab, 705-065-147) and Cy3-conjugated streptavidin (1:100; Sigma). Guinea pig anti-VGLUT1 (1:500; Millipore, AB5905) was followed by Alexa Fluor 488 goat anti-guinea pig Ig (1:500; Molecular Probes, A11073). […]
# Highest signal intensity single plane images of immunostained sections were obtained by laser scanning confocal microscope (LSM TCS SP2, Leica Microsystems, ×63/NA 1.3 objective for synapsin I and GAP-43; and LSM 700, Carl Zeiss for VGLUT1 ×40/NA 1.3) at 1024×1024 pixels resolution. […] Three standard sections per animal in 160 μm intervals were analysed. […]
# Single-stained images were analysed using MetaMorph® software (Molecular Devices, ver. 2.8.5) to obtain number, average size and intensity of positive punctuate structures per image. […] An experimenter blinded to experimental group performed all image acquisitions and quantifications.
substance,measurement,value
"C3a: Purified human C3a peptide (Complement Technologies), C3a receptor agonist, amino acid sequence SEQ ID NO: 1",density and size of VGLUT1+ puncta,higher density and size
